Assay results taken from patent US20260256826A1, “PREPARATION METHOD AND APPLICATION OF ZINC HYALURONATE” (BLOOMAGE BIOTECHNOLOGY CORPORATION LIMITED, priority 2022, published 2026).

What was measured:
[1] = Hydroxyl radical scavenging, salicylic acid method; settings: 0.5% solution
Description: The salicylic acid method was used to determine the hydroxyl radical scavenging ability of zinc hyaluronate samples. A certain amount of H2O2 and FeSO4 were mixed to produce hydroxyl radicals by Fenton reaction. Adding salicylic acid to the reaction system can capture hydroxyl radicals and produce 3-hydroxysalicylic acid and 5-hydroxysalicylic acid. Both products have strong absorption at 510 nm. The reaction equation is as follows: The addition of the sample will compete with salicylic acid for the reaction with OH, thereby reducing the production of 3-hydroxysalicylic acid and 5-hydroxysalicylic acid. The fixed reaction time method was used to measure the absorbance of the reaction solution at 510 nm and compare it with the blank solution to determine the scavenging effect of the analyte on hydroxyl free radicals. The scavenging rate is calculated as follows: In the formula, S is the scavenging rate, A0 is the absorbance value of the blank control, Ax is the absorbance value when the sample is added, and Ax0 is the absorbance value without adding the color developer.

[2] = Superoxide anion scavenging, pyrogallol self-oxidation method; settings: 0.5% solution
Method: The pyrogallol self-oxidation method was used. Under weakly alkaline conditions, pyrogallol can undergo self-oxidation reaction to generate superoxide anions and a colored intermediate product with a characteristic absorption peak at 320 nm. In the initial trial stage, the amount of intermediate product is linearly related to time. Since the self-oxidation rate depends on the concentration of superoxide anions, when a superoxide anion scavenger is added, it can react quickly with superoxide anions to inhibit the self-oxidation reaction, thereby preventing the accumulation of intermediates and weakening the light absorption of the solution at 320 nm. Therefore, the scavenging effect of the scavenger on superoxide anions can be evaluated by measuring the […] value. scavenging rate of superoxide anion free radical (%)=(A0-Ax)/A0×100%

Q: Which results are given for CC(=O)[O-].CC(=O)[O-].[Zn+2] [zinc acetate dihydrate]?
A: hydroxyl free radical scavenging ability (in words) [1]: significantly lower than that of HA-Zn; superoxide anion free radical scavenging ability (in words) [2]: significantly lower than that of HA-Zn
